Results reported in patent US5041426A, “Immune system enhancing 3-β-d-ribofuranosylthiazolo[4,5-d]pyridimine nucleosides and nucleotides” (priority 1988, dated 1991).
Where “and” joins values, the source holds several entries; their conditions need not be identical. Equal values may be shown once. Read-outs that look alike come from different tables or passages of the source.

Assays:
K562 tumor cells = assay: In vitro augmentation of human natural killer cell activity (PBMNC, 51Cr release); assay type: cell-based; conditions: Table 22
Description: The natural killer cell activity in human cells was also measured. In conducting these tests peripheral blood mononuculear cells (PBMNC) were isolated on Ficoll-Hypaque gradient, washed three times in Hanks and re-suspended in RPMI-1640 containing 10% human AB serum as described in Rosenberg, S. A.: Journal American Medical Association, 256:3117, 1986 and the above referred to reference to Djeu, et al. Peripheral blood mononuclear cells (PBMNC) from eleven different donors were treated with compound 7 as described in Djeu, et al. as well as Sharma, B., Odom, L. F.: Cancer Immunol. Immunother. 7.93, 1979, and Sharma, B., Odom, L. F.: Cancer Research 44:3258, 1984.
The PBMNC cells were incubated with compound 7 at 37° C. for 20 to 68 hours in a 5% CO2 humid atmosphere and after incubation the cytotoxicity was determined against K562 tumor cells.
^a Peripheral blood mononuclear cells were treated with 0.05 - 0.4 mM
concentration of compound 7 in RPM11640 containing 10% human AB serum for
20 to 68 hours. After the treatment, effector cells were tested against
K562 target cells in 4 hour ^51 Cr release assay as described in
Sharma et al. above. The data shown here represent the maximum response.
K562 target cells in 4 hour ^51 Cr release assay as previously
described above in Sharma et al. The data represent the maximum response.
Other Nucleosides and Nucleotides of the invention were tested for their activity in human natural killer cells […] as per example 33 above.

San Angelo Virus [1] = assay type: in vivo, mouse; conditions: 200 mg/kg/day; half-daily doses twice a day for 7 days; Time (21 days)
Influenza B Virus = assay: Antiviral activity against Influenza B virus infection in mice; assay type: in vivo, mouse
Description: Compound 7 was tested therapeutically against Influenza B Virus Infection in Mice. In addition to a saline control Ribavirin, a known antiviral, was utilized for test purposes.
hours previrus inoculation.
^c p < .001 twotailed ttest.

Banzi Virus = assay type: in vivo, mouse; conditions: placebo at -24 h, of mice that died
San Angelo Virus [2] = assay type: in vivo, mouse; conditions: saline at -24 h, of mice that died
YAC-1 cells [3] = assay: In vitro potentiation of murine natural killer cell activity (mouse spleen cells, 51Cr release); assay type: cell-based; conditions: Table 21; 0.5 mM
YAC-1 cells [4] = assay: as above; assay type: cell-based
Description: After incubation the cytotoxicity of the treated and untreated cells was determined against YAC-1 cells.
^a Spleen cells from mice were treated with 0.05 mM concentration of
amino acids and 5 × 10^-5 M Mercaptoethanol. The effector cells
were then tested for their cytotoxic activity against YAC1 target cells i
4 hr ^51 Cr release assay.
^a Spleen cells from mice were incubated in the absence and presence
of various compounds. After incubation, cells were suspended in complete
medium and then their cytotoxic activity was determined against YAC1
target cells as described in the text

Question: Which “% Natural Killer Cell Cytotoxicity” value (K562 tumor cells; 0.2 mM) does the source give for `O=c1[nH]c(=O)c2sc(=O)n([C@@H]3O[C@H](CO)[C@@H](O)[C@H]3O)c2[nH]1` [Compound 8, 3-β-D-Ribofuranosylthiazolo[4,5-d]pyrimidine-2,5,7(4H,6H)-trione] here?
Answer: Its value is 5%.

Question: For `Nc1nc2c(sc(=O)n2[C@@H]2O[C@@H]3COP(=O)(O)O[C@H]3[C@H]2O)c(=O)[nH]1` [Compound 12], which “% Natural Killer Cell Cytotoxicity” value (K562 tumor cells; 0.2 mM) is on record?
Answer: The value was 43%.

Question: And the “% Natural Killer Cell Cytotoxicity” value (K562 tumor cells; 0.4 mM, Monophosphate Ammonium Salt)?
Answer: The value was 39% and 22%.

Question: Which “Mean Survival Time” value (San Angelo Virus [1]) does the source give for `NC(=O)c1ncn([C@@H]2O[C@H](CO)[C@@H](O)[C@H]2O)n1` [Ribavirin] here?
Answer: The value was 12.3 ± 2.9 days.

Question: What about the “Mean Survival Time” value (Influenza B Virus; 100 mg/kg/day, half-daily doses twice a day for 7 days) of the same compound?
Answer: The value was 8.0 ± 0.0 days.

Question: And the “efficacy against influenza B (in words)” value (Influenza B Virus; Table 12)?
Answer: The value was “significant antiviral activity”.

Question: What about the “Mean Survival Time” value (Banzi Virus; Ribavirin 100 mg/kg days 0-6) of the same compound?
Answer: Its value is 8.5 ± 1.0 days.

Question: And the “Mean Survival Time” value (Banzi Virus; Ribavirin 200 mg/kg days 0-6)?
Answer: Its value is 9.1 ± 0.8 days.

Question: And the “Mean Survival Time” value (San Angelo Virus [2]; Ribavirin 25 mg/kg/day days 0-6)?
Answer: Its value is 8.1 ± 0.7 days.

Question: What about the “Mean Survival Time” value (San Angelo Virus [2]; Ribavirin 50 mg/kg/day days 0-6) of the same compound?
Answer: The value was 9.0 ± 1.2 days.

Question: With `O=C(OC[C@H]1O[C@@H](n2c(=O)sc3c(=O)[nH]cnc32)[C@H](OC(=O)c2ccccc2)[C@@H]1OC(=O)c1ccccc1)c1ccccc1` [Compound 9, 3-(2,3,5-Tri-O-benzoyl-β-D-Ribofuranosyl)thiazolo[4,5-d] pyrimidine-2,7(6H)-dione] as the compound, how does the “% Natural Killer Cell Cytotoxicity” value (YAC-1 cells [3]) read?
Answer: Its value is 13% and 6.5%.

Question: What about the “% Natural Killer Cell Cytotoxicity” value (K562 tumor cells; 0.05 mM) of the same compound?
Answer: Its value is 6%.

Question: What about the “% Natural Killer Cell Cytotoxicity” value (K562 tumor cells; 0.2 mM) of the same compound?
Answer: The value was 43%.

Question: What about the “% Natural Killer Cell Cytotoxicity” value (YAC-1 cells [4]; Table 21, 0.05 mM) of the same compound?
Answer: Its value is 3% and 2% and 0.31%.

Question: How did the “% Natural Killer Cell Cytotoxicity” value (K562 tumor cells; 0.2 mM) turn out when `Nc1nc2c(sc(=O)n2[C@@H]2O[C@H](CO)[C@@H](O)[C@H]2O)c(=S)[nH]1` [Compound 19, 5-Amino-7(6H)-thioxo-3-β-D-ribofuranoxylthiazolo[4,5-d]pyrimidin-2-one] was run?
Answer: Its value is 7%.

Question: With Poly I:C [reference compound] as the compound, how does the “% Natural Killer Cell Cytotoxicity” value (YAC-1 cells [4]; C57BL/6J spleen cells, treatment 0 h, compound 7 at 0.05 mM) read?
Answer: Its value is 18%.

Question: What about the “% Natural Killer Cell Cytotoxicity” value (YAC-1 cells [4]; C57BL/6J spleen cells, treatment 0 h, compound 7 at 0.05 mM, listed as Poly I:) of the same compound?
Answer: Its value is 22%.

Question: And the “% Natural Killer Cell Cytotoxicity” value (YAC-1 cells [4]; C57BL/6J spleen cells, treatment 20 h, compound 7 at 0.05 mM)?
Answer: Its value is 13%.

Question: And the “% Natural Killer Cell Cytotoxicity” value (YAC-1 cells [4]; C57BL/6J spleen cells, treatment 20 h, compound 7 at 0.05 mM, listed as Poly I:)?
Answer: Its value is 6%.

Question: And the “% Natural Killer Cell Cytotoxicity” value (YAC-1 cells [4]; C57BL/6J spleen cells, treatment 44 h, compound 7 at 0.05 mM)?
Answer: Its value is 14%.

Question: And the “% Natural Killer Cell Cytotoxicity” value (YAC-1 cells [4]; C57BL/6J spleen cells, treatment 44 h, compound 7 at 0.05 mM, listed as Poly I:)?
Answer: Its value is 13%.

Question: What about the “% Natural Killer Cell Cytotoxicity” value (YAC-1 cells [4]; CBA/CaJ spleen cells, treatment 0 h, compound 7 at 0.05 mM) of the same compound?
Answer: The value was 14.5% and 22%.

Question: What about the “% Natural Killer Cell Cytotoxicity” value (YAC-1 cells [4]; CBA/CaJ spleen cells, treatment 20 h, compound 7 at 0.05 mM) of the same compound?
Answer: Its value is 18% and 31%.

Question: What about the “% Natural Killer Cell Cytotoxicity” value (YAC-1 cells [4]; CBA/CaJ spleen cells, treatment 44 h, compound 7 at 0.05 mM) of the same compound?
Answer: Its value is 19% and 9%.

Question: `Nc1nc2c(sc(=S)n2[C@@H]2O[C@H](CO)[C@@H](O)[C@H]2O)c(=O)[nH]1` [Compound 16, 5-Amino-2-thioxo-3-β -D-ribofuranosylthiazolo[4,5-d]pyrimidin-7(6H)-one] was tested. Which “% Natural Killer Cell Cytotoxicity” value (YAC-1 cells [3]) did it give?
Answer: The value was 38%.
